Molecular target: T1, Dimethylarginine dimethylaminohydrolase 1 (DDAH1) (Homo sapiens, UniProt O94760)
T1 construct: N-terminal fusion protein with glutathione S-transferase (DDAH1-GST)
Experiment: MicroScale Thermophoresis (MST) with purified recombinant protein; hydrolysis to L-citrulline also measured
Details: read-out: Binding status Kd (μM) ± confidence values

T1 sequence (O94760 whole entry, the tested form may be a part): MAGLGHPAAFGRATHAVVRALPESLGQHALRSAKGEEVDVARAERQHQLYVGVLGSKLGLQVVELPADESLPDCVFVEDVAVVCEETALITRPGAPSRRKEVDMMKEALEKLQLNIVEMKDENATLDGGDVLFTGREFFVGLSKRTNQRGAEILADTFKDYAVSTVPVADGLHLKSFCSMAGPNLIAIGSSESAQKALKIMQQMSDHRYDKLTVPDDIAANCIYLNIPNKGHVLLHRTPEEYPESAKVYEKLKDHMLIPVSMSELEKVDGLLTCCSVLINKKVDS

Kd: 4.27 ± 0.46 µM
Compound: CN(C)C(=N)NCCC[C@H](N)C(=O)O [ADMA]

— publication PMC10256801, “A multicentric consortium study demonstrates that dimethylarginine dimethylaminohydrolase 2 is not a dimethylarginine dimethylaminohydrolase” (Nature Communications, 2023)
